Results: patent US5972939A, “Cyclopentene derivatives useful as antagonists of the motilin receptor” (Ortho-McNeil Pharmaceutical, Inc., priority 1998, dated 1999)
Like-named read-outs stand apart in the source and are kept apart here.

How the values were obtained:
[1] = target: T1, motilin receptors located on the colon of mature rabbits (Oryctolagus cuniculus, UniProt G1T803); experiment: competition with radiolabeled (125I) porcine motilin for the motilin receptors of rabbit colon; type: binding; details: for IC50: rabbit colon, 125I motilin
T1 construct: The colon from mature New Zealand rabbits was removed, dissected free from the mucosa and serosa layers, and diced into small pieces; from tissue; host or cells: colon smooth muscle of mature New Zealand rabbits, crude membrane homogenate
T1 sequence (G1T803 1-400): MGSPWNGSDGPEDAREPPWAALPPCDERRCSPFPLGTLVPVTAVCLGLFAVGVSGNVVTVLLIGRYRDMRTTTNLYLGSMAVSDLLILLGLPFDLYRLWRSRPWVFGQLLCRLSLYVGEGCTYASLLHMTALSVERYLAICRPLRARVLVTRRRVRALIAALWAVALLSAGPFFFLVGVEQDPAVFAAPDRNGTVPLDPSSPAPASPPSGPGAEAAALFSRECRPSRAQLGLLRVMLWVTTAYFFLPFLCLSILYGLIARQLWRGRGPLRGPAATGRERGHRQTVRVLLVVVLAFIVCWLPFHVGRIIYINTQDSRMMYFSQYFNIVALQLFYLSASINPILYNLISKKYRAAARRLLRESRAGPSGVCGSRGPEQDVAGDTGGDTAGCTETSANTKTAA
Experimental: The compounds of the invention were tested for their ability to compete with radiolabeled motilin (porcine) for the motilin receptors located on the colon of mature rabbits. The colon from mature New Zealand rabbits was removed, dissected free from the mucosa and serosa layers, and diced into small pieces. […] The homogenate was centrifuged at 1000×g for 15 min. and the supernatant discarded. The pellet was washed twice before being suspended in homogenizing buffer. This crude homogenate is then passed first through a 19 gauge needle then a 23 gauge needle to further suspend the material and stored as -80° C. […] After 30 min, at 30° C., the material was cooled on ice and centrifuged at 13,000×g for 1 minute. The pellet was washed with 1 mL 0.9% saline and centrifuged at 13,000×g for 15 seconds. The pellet was washed again with cold saline and the supernatant was removed. The pellet was counted in the gamma counter to determine the percentage of […] motilin and thereby the percent inhibition of the test compound. IC50s were determined for some compounds by standard techniques.

[2] = tested on: rabbit duodenum smooth muscle (motilin and erythromycin induced contractions); experiment: inhibition of motilin (porcine) induced contractions in rabbit duodenum smooth muscle; type: cell-based; details: for IC50: rabbit duodenum strips, porcine motilin; for inhibition at 2 µM: @ 2 μM (2.0 μM)
Experimental: Select compounds of the invention were evaluated for their ability to inhibit motilin and erythromycin induced contractions in the rabbit duodenum smooth muscle. Rabbits were fasted 24-48 h and euthanized. The venral midline incision was made approximately 7.5 cm above the umbilicus upto the xyphoid process, exposing the upper peritoneal cavity. The first 8 cm. of the duodenum starting at the pyloric valve was quickly removed and placed in Krebs solution containing NaCl, ([…]), KCl (4.7 mM), MgSO4 *7 H2 O (1.2 mM), CaCl2 *2 H2 O (2.4 mM), KH2 PO4 (1 mM), D-glucose (10 mM), and NaHCO3 (24 mM). The lumen was flushed with Krebs and excess tissue was removed. The tissue was cut lengthwise, splayed open with the longitudinal muscle layer facing up, and the longitudinal muscle layer was released away from the circular muscle and cut into 3×30 mm strips. A pre-tied 4-0 silk ligature with a loop was placed at the middle of the strip and the strip was folded over the loop so the strip was half its original length. The tissues were mounted in a 10 mL tissue bath (Radnotti Glass Technology, Inc., Monrovia, Calif.) containing Krebs solution gassed with 95% O2 5% CO2 at 37° C. […] The tissues were allowed to equilibrate for 60-90 min with 2-3 wash cycles. The tissues were equilibrated with two initial contractions induced by a concentration of acetylcholine (1×10^-4 M) that produced a maximal contraction (0.1 mM), with the highest taken as 100% maximall contraction of that tissue. Base line and response levels are expressed as grams tension developed and as a percent of the response to acetylcholine. The test compounds were dissolved in DMSO (2 mM/100% DMSO) and applied to the prepared strips 5-15 minutes prior to the addition of porcine motilin. After addition, the tension is constantly monitored over 5 min and the maximum tension is recorded. The percent contraction was measured at four ascending concentrations and where appropriate IC50s were determined.

[3] = Oryctolagus cuniculus, read-out: IC50

O=C(Nc1ccccc1)N(CC1=CC(Cc2ccccc2)(NC(=O)C(Cl)(Cl)Cl)CC1)c1cccc(OCCN2CCOCC2)c1 (centres unmarked) [Compound 7, 3-Benzyl-3-trichloroacetylamino-1-(N-phenylaminocarbonyl)-N-[(3-(2-morpholinoethoxy)phenyl)amino]methylcyclopentene]
IC50 ([1]; read-out: IC50): 0.045 µM | IC50 ([2]; read-out: IC50): 0.287 µM

O=C(Nc1ccccc1)N(CC1=CC(Cc2ccccc2)(NC(=O)C(Cl)(Cl)Cl)CC1)c1cccc(OCCN2CCOCC2)c1 (centres unmarked) [Compound 8]
IC50 ([1]; read-out: IC50): 0.02 µM | IC50 ([2]; read-out: IC50): 0.28 µM

O=C(Nc1ccccc1)N(CC1=CC(Cc2ccccc2)(NC(=O)C(Cl)(Cl)Cl)CC1)c1cccc(OCCN2CCOCC2)c1 (centres unmarked) [Compound 9, 3-Benzyl-3-trichloroacetylamino-1-(N-phenylaminocarbonyl)-N-[(3-(2-morpholinoethoxy)phenyl)amino]methylcyclopentene]
IC50 ([1]; read-out: IC50): > 0.3 µM | IC50 ([2]; read-out: IC50): 0.89 µM

O=C(c1ccccc1)N(CC1=CC(Cc2ccccc2)(NC(=O)C(Cl)(Cl)Cl)CC1)c1cccc(OCCN2CCOCC2)c1 (centres unmarked) [Compound 10, 3-Benzyl-3-trichloroacetylamino-1-(N-phenylcarbonyl)-N-[(3-(2-morpholinoethoxy)phenyl)amino]methylcyclopentene]
IC50 ([1]; read-out: IC50 (unit inferred)): 0.3 µM | IC50 [2, 3]: 0.393 µM

CCN(CC)CCN(CC1=CC(Cc2ccccc2)(NC(=O)C(Cl)(Cl)Cl)CC1)c1cccc(O)c1 (centres unmarked) [Compound 50]
inhibition at 10 µM [1]: 81% | inhibition at 20 µM ([2]; Oryctolagus cuniculus, @ 20 μM): 98%

CCN(CC)CCOc1cccc(N(CCN(CC)CC)CC2=CC(Cc3ccccc3)(NC(=O)C(Cl)(Cl)Cl)CC2)c1 (centres unmarked) [Compound 51]
inhibition at 5 µM ([2]; Oryctolagus cuniculus): 74%

CCN(CC)CCN(CC1=CC(Cc2ccccc2)(NC(=O)C(Cl)(Cl)Cl)CC1)c1cccc(OCCN2CCCCC2)c1 (centres unmarked) [Compound 52]
IC50 ([1]; read-out: IC50 (unit inferred)): 0.6 µM | inhibition at 10 µM ([2]; Oryctolagus cuniculus): 70%

CCN(CC)CCN(CC1=CC(Cc2ccccc2)(NC(=O)C(Cl)(Cl)Cl)CC1)c1cccc(OCCN2CCOCC2)c1 (centres unmarked) [Compound 53]
IC50 ([1]; read-out: IC50 (unit inferred)): 0.3 µM | IC50 [2, 3]: 3.93 µM

CCN(CC)CCN(CC1=CC(Cc2ccccc2)(NC(=O)C(Cl)(Cl)Cl)CC1)c1cccc(OCCCN2CCCCC2)c1 (centres unmarked) [Compound 54]
IC50 ([1]; read-out: IC50 (unit inferred)): 0.9 µM | inhibition at 5 µM ([2]; Oryctolagus cuniculus): 24%

CCN(CC)CCN(CC1=CC(Cc2ccccc2)(NC(=O)C(Cl)(Cl)Cl)CC1)c1cccc(OCCN2CCCC2)c1 (centres unmarked) [Compound 55]
IC50 ([1]; read-out: IC50 (unit inferred)): 0.9 µM | inhibition at 2 µM ([2]; Oryctolagus cuniculus): 43%

CN(C)CCSc1ccc(NCC2=CC(Cc3ccccc3)(NC(=O)C(Cl)(Cl)Cl)CC2)cc1 (centres unmarked) [Compound 56]
IC50 ([1]; read-out: IC50 (unit inferred)): 1.5 µM | inhibition at 2 µM ([2]; Oryctolagus cuniculus): 24%

O=C(NC1(Cc2ccccc2)C=C(CN(CCN2CCOCC2)Cc2cccc(OCCN3CCOCC3)c2)CC1)C(Cl)(Cl)Cl (centres unmarked) [Compound 57]
IC50 ([1]; read-out: IC50 (unit inferred)): 0.7 µM | IC50 ([2]; Oryctolagus cuniculus, read-out: IC50 (unit inferred)): 1.06 µM

CCN(CC)CCSc1ccc(NCC2=CC(Cc3ccccc3)(NC(=O)C(Cl)(Cl)Cl)CC2)cc1 (centres unmarked) [Compound 58]
IC50 ([1]; read-out: IC50 (unit inferred)): 1.8 µM | inhibition at 2 µM ([2]; Oryctolagus cuniculus): 44%

O=C(c1ccc(F)cc1)N(CC1=CC(Cc2ccccc2)(NC(=O)C(Cl)(Cl)Cl)CC1)c1cccc(OCCN2CCOCC2)c1 (centres unmarked) [Compound 59]
IC50 ([1]; read-out: IC50): 0.052 µM | inhibition at 3 µM ([2]; Oryctolagus cuniculus, @ 3.0 μM): 54%

COc1ccc(C(=O)N(CC2=CC(Cc3ccccc3)(NC(=O)C(Cl)(Cl)Cl)CC2)c2cccc(OCCN3CCOCC3)c2)cc1 (centres unmarked) [Compound 60]
IC50 ([1]; read-out: IC50): 0.09 µM | inhibition at 10 µM ([2]; Oryctolagus cuniculus): 49%

O=C(c1ccc(Br)cc1)N(CC1=CC(Cc2ccccc2)(NC(=O)C(Cl)(Cl)Cl)CC1)c1cccc(OCCN2CCOCC2)c1 (centres unmarked) [Compound 61]
inhibition at 0.05 µM ([1]; @ 0.05 μM): 64% | inhibition at 1 µM ([2]; Oryctolagus cuniculus, @ 1.0 μM): 63%

O=C(c1sccc1Br)N(CC1=CC(Cc2ccccc2)(NC(=O)C(Cl)(Cl)Cl)CC1)c1cccc(OCCN2CCOCC2)c1 (centres unmarked) [Compound 115]
inhibition at 1 µM [1]: 65%

O=C(c1ccc([N+](=O)[O-])cc1)N(CC1=CC(Cc2ccccc2)(NC(=O)C(Cl)(Cl)Cl)CC1)c1cccc(OCCN2CCOCC2)c1 (centres unmarked) [Compound 116]
inhibition at 0.1 µM [1]: 69%

O=C(C(c1ccccc1)c1ccccc1)N(CC1=CC(Cc2ccccc2)(NC(=O)C(Cl)(Cl)Cl)CC1)c1cccc(OCCN2CCOCC2)c1 (centres unmarked) [Compound 117]
inhibition at 1 µM [1]: 42%

O=C(Oc1ccccc1)N(CC1=CC(Cc2ccccc2)(NC(=O)C(Cl)(Cl)Cl)CC1)c1cccc(OCCN2CCOCC2)c1 (centres unmarked) [Compound 118]
inhibition at 1 µM [1]: 51%

O=C(NC1CCCCC1)N(CC1=CC(Cc2ccccc2)(NC(=O)C(Cl)(Cl)Cl)CC1)c1cccc(OCCN2CCOCC2)c1 (centres unmarked) [Compound 119]
inhibition at 1 µM [1]: 56%

O=C(Nc1ccc(F)cc1)N(CC1=CC(Cc2cccc(Cl)c2)(NC(=O)C(Cl)(Cl)Cl)CC1)c1cccc(OCCN2CCOCC2)c1 (centres unmarked) [Compound 120]
IC50 ([1]; read-out: IC50): 0.01 µM

O=C(c1ccc(F)cc1)N(CC1=CC(Cc2cccc(Cl)c2)(NC(=O)C(Cl)(Cl)Cl)CC1)c1cccc(OCCN2CCOCC2)c1 (centres unmarked) [Compound 121]
IC50 ([1]; read-out: IC50): 0.03 µM

O=C(c1ccc2c(c1)OCO2)N(CC1=CC(Cc2ccccc2)(NC(=O)C(Cl)(Cl)Cl)CC1)c1cccc(OCCN2CCOCC2)c1 (centres unmarked) [Compound 122]
inhibition at 1 µM [1]: 77%

CC(C)C1(NC(=O)C(Cl)(Cl)Cl)C=C(CN(C(=O)Nc2ccccc2)c2cccc(OCCN3CCOCC3)c2)CC1 (centres unmarked) [Compound 123]
inhibition at 1 µM [1]: 51%

O=C(c1cccc2ccccc12)N(CC1=CC(Cc2ccccc2)(NC(=O)C(Cl)(Cl)Cl)CC1)c1cccc(OCCN2CCOCC2)c1 (centres unmarked) [Compound 124]
inhibition at 0.1 µM [1]: 40%

O=C(c1ccc(F)cc1)N(CC1=CC(Cc2ccc(F)cc2)(NC(=O)C(Cl)(Cl)Cl)CC1)c1cccc(OCCN2CCOCC2)c1 (centres unmarked) [Compound 125]
inhibition at 0.04 µM [1]: 43%

O=C(c1cccc(F)c1)N(CC1=CC(Cc2ccc(F)cc2)(NC(=O)C(Cl)(Cl)Cl)CC1)c1cccc(OCCN2CCOCC2)c1 (centres unmarked) [Compound 126]
inhibition at 0.04 µM [1]: 44%

O=C(Nc1ccccc1)N(CC1=CC(NC(=O)C(Cl)(Cl)Cl)(c2ccccc2)CC1)c1cccc(OCCN2CCOCC2)c1 (centres unmarked) [Compound 127]
inhibition at 0.1 µM [1]: 33%

O=C(c1ccc(F)cc1)N(CC1=CC(NC(=O)C(Cl)(Cl)Cl)(c2ccccc2)CC1)c1cccc(OCCN2CCOCC2)c1 (centres unmarked) [Compound 128]
inhibition at 0.1 µM [1]: 43%

O=C(c1ccc(Br)cc1)N(CC1=CC(Cc2cccc(Cl)c2)(NC(=O)C(Cl)(Cl)Cl)CC1)c1cccc(OCCN2CCOCC2)c1 (centres unmarked) [Compound 129]
inhibition at 0.1 µM [1]: 70%

O=C(c1ccc(F)c(F)c1)N(CC1=CC(Cc2cccc(Cl)c2)(NC(=O)C(Cl)(Cl)Cl)CC1)c1cccc(OCCN2CCOCC2)c1 (centres unmarked) [Compound 130]
inhibition at 0.1 µM [1]: 78%

O=C(NC1(Cc2ccccc2)C=C(CNc2cccc(OCCN3CCOCC3)c2)CC1)C(F)(F)F (centres unmarked) [Compound 131]
inhibition at 10 µM [1]: 25%

CC(=O)NC1(Cc2ccccc2)C=C(CN(C(=O)c2ccc(F)cc2)c2cccc(OCCN3CCOCC3)c2)CC1 (centres unmarked) [Compound 133]
inhibition at 1 µM [1]: 51%

O=C(Nc1ccccc1)N(CC1=CC(Cc2ccccc2)(NC(=O)C(F)(F)F)CC1)c1cccc(OCCN2CCOCC2)c1 (centres unmarked) [Compound 134]
inhibition at 1 µM [1]: 69%

O=C(Nc1ccccc1)N(CC1=CC(Cc2ccccc2)(NC(=O)C(Cl)(Cl)Cl)CC1)c1cccc(OCC[N+]2([O-])CCOCC2)c1 (centres unmarked) [Compound 136]
inhibition at 1 µM [1]: 57%

O=C(c1ccc(Br)cc1)N(CC1=CC(Cc2ccccc2)(NC(=O)C(Cl)(Cl)Cl)CC1)c1cccc(OCC[N+]2([O-])CCOCC2)c1 (centres unmarked) [Compound 137]
inhibition at 1 µM [1]: 50%

O=C(c1ccc(-c2ccccc2)cc1)N(CC1=CC(Cc2ccccc2)(NC(=O)C(Cl)(Cl)Cl)CC1)c1cccc(OCCN2CCOCC2)c1 (centres unmarked) [Compound 1407]
inhibition at 1 µM [1]: 58%
